From patent US6818203B2, “Use of perfluoroalkyl-containing metal complexes as contrast media in MR-imaging for visualization of plaque, tumors and necroses” (Schering Aktiengesellschaft, priority 2000, dated 2004)
Values joined by “and” are separate entries in the source; they are usually repeats but may differ in a detail not shown here. Equal entries are not always repeated. Values belong to the compound of their own block, whether it stands above or below them.

How the values were obtained:
[1] = in vivo; cited from earlier work
[2] = critical micelle formation concentration (CMC) by tensiometry; type: physicochemical
Protocol: In aqueous systems, these amphiphilic molecules show the properties that are characteristic of standard surfactants (such as, e.g., sodium dodecylsulfate, SDS). They thus reduce the surface tension of water. By tensiometry, the so-called CMC (critical micelle formation concentration in mol/l) can be determined. In this respect, the surface tension is determined based on the concentration of the substance to be measured. The CMC can be calculated from the plot of the surface tension function (c) that is obtained. The critical micelle formation concentration of the compounds according to the invention must be <10^−3 mol/l, preferably <10^−4 mol/l.
(§1) Both the determination of the CMC and the photon correlation spectroscopy are described in H.-D. Dörfler, “Grenzflächen- und Kolloidchemie [Interface and Colloid Chemistry],” Weinheim, New York, Basel, Cambridge, Tokyo, VSH 1994.

[3] = hydrodynamic micelle diameter (2 Rh) by photon correlation spectroscopy (PCS); type: physicochemical
Source text: The amphiphilic compounds according to the invention are combined in solution and are present as aggregates. The size (2 Rh) of such aggregates (e.g., micelles, rods, wafers, etc.) can be determined with the aid of […] (PCS).
As a second criterion, the hydrodynamic micelle diameter 2 Rh, which must be >1 nm, is therefore used. Those perfluoroalkyl-containing metal complexes according to the invention whose 2 RH is ≧3, quite especially preferably >4 nm, are especially suitable.
as §1

[4] = proton relaxivity in plasma (R^1), Minispec P 20; type: physicochemical; conditions: 40° C., 0.47 tesla, bovine plasma
Protocol: As a third criterion, the proton-relaxivity in plasma (R^1) at 40° C. and a field strength of 0.47 tesla is used. The relaxivity, which is indicated in [l/mmol·s], is the quantitative measurement for the shortening of relaxation time T^1 of the protons. For the purpose according to the invention, the relaxivity must be as high as possible and >10 l/mmol·s, preferably >13 l/mmol·s, especially preferably >15 l/mmol·s.
Relaxivity R^1 [l/mmol·s] of the MR-contrast media according to the invention was determined with the Minispec P 20 device of the Bruker Company. The measurements were taken at 40° C. and a field strength of 0.47 tesla. Eight measuring points were recorded by each T1-sequence: 180°-TI-90°, inversion recovery. As a medium, bovine plasma of the Kraeber Company was used. The contrast medium concentrations [mmol/l] in the batches were between 0.30 and 1.16.

myocardial infarction = assay: infarction visualization (MRT) after intravenous administration in rats with acutely induced myocardial infarction; type: in vivo; conditions: 24 hours after i.v. 100 μmol of Gd/kg
Source text: The successful induction of an acute myocardial infarction was confirmed by means of NBT-staining.

iliac lymph nodes = assay: lymph node visualization (MRT) after intravenous administration in VX2-tumor-bearing rabbits; type: in vivo
Protocol: The pictures of FIG. 6 show MR images of an iliac lymph node and of a primary tumor (VX2-tumor implanted i.m.) precontrast, 60 minutes and 20 hours after intravenous administration of 100 μmol of Gd/kg of body weight of metal complex I in rabbits. […] The enhancement in the healthy lymph node tissue was 382% at the time of 15 minutes p.i. and 419% at the time of 60 minutes p.i. […] The ratio of signal intensities of healthy lymph node tissue to metastasis was 3.0 at the time of 15 minutes p.i. and 3.4 at the time of 60 minutes p.i. […] The enhancement in the healthy lymph node tissue was 246% at the time of 15 minutes p.i. and 282% at the time of 60 minutes p.i. […] The ratio of signal intensities of healthy lymph node tissue to metastasis was 2.5 at the time of 15 minutes p.i. and 1.7 at the time of 60 minutes p.i. […] The enhancement in the healthy lymph node tissue was 297% at the time of 10 minutes p.i. and 269% at the time of 60 minutes p.i. […] The ratio of signal intensities of healthy lymph node tissue to metastasis was 5.1 at the time of 10 minutes p.i. and 1.9 at the time of 60 minutes p.i. […] The enhancement in the healthy lymph node tissue was 195% at the time of 15 minutes p.i. and 233% at the time of 60 minutes p.i. […] The ratio of signal intensities of healthy lymph node tissue to metastasis was 1.9 at the time of 15 minutes p.i. and 1.8 at the time of 60 minutes p.i.

[5] = tested on: primary tumor (VX2-tumor implanted i.m.); assay: tumor visualization (MRT) after intravenous administration in VX2-tumor-bearing rabbits; type: in vivo
Protocol: The pictures of FIG. 6 show MR images of an iliac lymph node and of a primary tumor (VX2-tumor implanted i.m.) precontrast, 60 minutes and 20 hours after intravenous administration of 100 μmol of Gd/kg of body weight of metal complex I in rabbits. […]

arteriosclerotic plaque = assay: MRT-visualization of arteriosclerotic plaque after intravenous administration; type: in vivo, Watanabe rabbits
Source text: Based on the contrast between the plaque with strong signals and the healthy vessel wall with little or no signals, a diagnosis of the arteriosclerotic vessel wall changes was possible.
The localization of the plaque, especially in aortic arches and in vascular passages, was confirmed by means of Sudan-III-staining.
The localization of the plaque, especially in aortic arches as well as in vascular passages, was confirmed by means of Sudan-III-staining. Then, the MR-imaging of the agar-embedded preparation was again examined with a T1-weighted gradientecho sequence (MPRage; 1.5 T; TR 11.1 ms, TE 4.3 ms, 15° flip angle α; NA: 2; matrix: 213*256) and a spin-echo sequence (1.5 T; TR: 400 ms, TE: 15 ms; NA: 16; matrix: 256*256) (post mortem image).

infarcted tissue = conditions: cited from earlier work
[6] = 24 hours after contrast medium administration, 200 μmol of Gd/kg i.v.

Compound: O=S(=O)([O-])c1ccc(-c2c3nc(c(-c4ccc(S(=O)(=O)[O-])cc4)c4ccc([nH]4)c(-c4ccc(S(=O)(=O)[O-])cc4)c4nc(c(-c5ccc(S(=O)(=O)[O-])cc5)c5ccc2[nH]5)C=C4)C=C3)cc1.[Mn+4] [Mn-TPPS, manganese-5,10,15,20-tetrakis(4-sulfonatophenyl)-porphyrin]
LD50 [1]: approximately 0.5 mmol/kg
dose at which an action starts [1]: 0.2 mmol/kg

Compound: CC(C(=O)NCC(=O)N1CCN(S(=O)(=O)C(F)(F)C(F)(F)C(F)(F)C(F)(F)C(F)(F)C(F)(F)C(F)(F)C(F)(F)F)CC1)N1CCN(CC(=O)[O-])CCN(CC(=O)[O-])CCN(CC(=O)[O-])CC1.[Gd+3] (centres unmarked) [metal complex I, Gadolinium complex of 10-[1-methyl-2-oxo-3-aza-5-oxo-{4-perfluorooctyl-sulfonyl-piperazin-1-yl}-pentyl]-1,4,7-tris(carboxymethyl)-1,4,7,10-tetraazacyclododecane]
CMC (critical micelle formation concentration) [2]: 1.86e-06 mol/L
2 Rh (hydrodynamic micelle diameter) [3]: 4.6 nm
R^1 Plasma (relaxivity) [4]: 35.7 mmol⁻¹ s⁻¹
signal in the infarction area (T1-weighted spin-echo images) (myocardial infarction): strong signal rise
signal in healthy lymph node tissue (T1-weighted gradient-echo images) (iliac lymph nodes; 100 μmol of Gd/kg i.v., 60 minutes and 20 hours): strong signal rise
enhancement of the primary tumor (especially the periphery) ([5]; 60 minutes p.i., 100 μmol of Gd/kg i.v.): considerable enhancement
course of the signal rise of the primary tumor ([5]; 20 hours p.i., 100 μmol of Gd/kg i.v.): propagated in the more central region of the tumor
enhancement of a pathological structure (optionally secondary tumor or necrosis) on the contralateral side ([5]; late images, 100 μmol of Gd/kg i.v.): late enhancement

Compound: CCN(CCCCCC(=O)NCC(O)CN1CCN(CC(=O)[O-])CCN(CC(=O)[O-])CCN(CC(=O)[O-])CC1)S(=O)(=O)C(F)(F)C(F)(F)C(F)(F)C(F)(F)C(F)(F)C(F)(F)C(F)(F)C(F)(F)F.[Gd+3] (centres unmarked) [metal complex XII, Gadolinium complex of 10-[2-hydroxy-4-aza-5-oxo-11-aza-11-(perfluorooctyl-sulfonyl)-tridecyl]-1,4,7-tris(carboxymethyl) 1,4,7,10-tetraazacyclododecane]
CMC (critical micelle formation concentration) [2]: 1.07e-05 mol/L
2 Rh (hydrodynamic micelle diameter) [3]: 7.4 nm
R^1 Plasma (relaxivity) [4]: 30.5 mmol⁻¹ s⁻¹

Compound: O=C([O-])CN1CCN(CC(=O)[O-])CCN(CC(O)CNC(=O)CN(Cc2ccccc2)S(=O)(=O)C(F)(F)C(F)(F)C(F)(F)C(F)(F)C(F)(F)C(F)(F)C(F)(F)C(F)(F)F)CCN(CC(=O)[O-])CC1.[Gd+3] (centres unmarked) [metal complex XIII, Gadolinium complex of 10-[2-hydroxy-4-aza-5-oxo-7-aza-7-(perfluorooctyl-sulfonyl)-8-phenyl-octyl]-1-4-7-tris(carboxymethyl)-1,4,7,10-tetraazacyclododecane]
CMC (critical micelle formation concentration) [2]: 3.25e-06 mol/L
2 Rh (hydrodynamic micelle diameter) [3]: 4.3 nm
R^1 Plasma (relaxivity) [4]: 34.0 mmol⁻¹ s⁻¹

Compound: gadolinium-mesoporphyrin [Gd-MP]
ratio of the signal intensities during MRI for infarcted tissue in comparison to healthy tissue (infarcted tissue; infarcted kidney and myocardium (both cases)): 2.10 and 2.19
metal content of the infarcted organ compared with non-infarcted (infarcted tissue; kidney (Example 3 of WO 95/31219)): as high as that of the non-infarcted organ
metal content in the infarcted tissue compared with non-infarcted (infarcted tissue; myocardium (Example 1 of WO 95/31219)): nine times as high

Further lines, with some results ahead:

CMC (critical micelle formation concentration) [2]: 2.5e-06 mol/L
2 Rh (hydrodynamic micelle diameter) [3]: 4.4 nm
R^1 Plasma (relaxivity) [4]: 15.9 mmol⁻¹ s⁻¹
Compound: CC(C(=O)NCC(=O)NCCCC[C@H](NC(=O)CO[C@H]1O[C@H](CO)[C@@H](O)[C@H](O)[C@@H]1O)C(=O)N1CCN(S(=O)(=O)C(F)(F)C(F)(F)C(F)(F)C(F)(F)C(F)(F)C(F)(F)C(F)(F)C(F)(F)F)CC1)N1CCN(CC(=O)[O-])CCN(CC(=O)[O-])CCN(CC(=O)[O-])CC1.[Gd+3] (stereo partly drawn) [metal complex XV, 6-N-[1,4,7-Tris(carboxylatomethyl)-1,4,7,10-tetraazacyclododecane-10-N-(pentanoyl-3-aza-4-oxo-5-methyl-5-yl)]-2-N-[1-O-α-D-carbonylmethyl-mannopyranose]-L-lysine-[1-(4-perfluorooctylsulfonyl)-piperazine]-amide, Gd complex]
signal in arteriosclerotic plaque (MR images of the aorta) (arteriosclerotic plaque; 35 minutes, 60 minutes and 24 hours after i.v. 10 μmol of Gd/kg): strong signal rise
signal in the arteriosclerotic plaque (MR images of the aorta) (arteriosclerotic plaque; 24 hours and 48 hours after i.v. 25 μmol of Gd/kg): strong signal rise
correlation of the aortic sections with strong signal rise and Sudan-III stained plaque (arteriosclerotic plaque; post mortem image of the agar-embedded preparation, 10 μmol of Gd/kg i.v.): excellent correlation
signal in the infarction area (T1-weighted spin-echo images) (myocardial infarction): strong signal rise
signal in healthy lymph node tissue (T1-weighted gradient-echo images) (iliac lymph nodes; 200 μmol of Gd/kg i.v.): strong signal rise
signal in the metastasis, late (iliac lymph nodes; [6]): considerable signal rise
signal rise in healthy lymph node tissue, late (iliac lymph nodes; [6]): reduced
signal in zones within the lymph node diagnosed as metastases (confirmed histologically) (iliac lymph nodes; early images, 200 μmol of Gd/kg i.v.): without signal rise
course of the enhancement of the primary tumor ([5]; 24 hours p.i., 200 μmol of Gd/kg i.v.): propagates out from the center of the tumor
enhancement of the primary tumor (especially the periphery) ([5]; immediately after administration, 200 μmol of Gd/kg i.v.): considerable enhancement

CMC (critical micelle formation concentration) [2]: 3.9e-05 mol/L
2 Rh (hydrodynamic micelle diameter) [3]: 4.9 nm
R^1 Plasma (relaxivity) [4]: 21.3 mmol⁻¹ s⁻¹
Compound: CC(C(=O)NCC(=O)NCCCC[C@H](NC(=O)CNC(=O)C(C)N1CCN(CC(=O)[O-])CCN(CC(=O)[O-])CCN(CC(=O)[O-])CC1)C(=O)N1CCN(S(=O)(=O)C(F)(F)C(F)(F)C(F)(F)C(F)(F)C(F)(F)C(F)(F)C(F)(F)C(F)(F)F)CC1)N1CCN(CC(=O)[O-])CCN(CC(=O)[O-])CCN(CC(=O)[O-])CC1.[Gd+3].[Gd+3] (some centres unmarked) [metal complex XVI]
